According to ChEMBL document CHEMBL1201862, “PubChem BioAssay data set” (2004):
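Step 1: Grow cells in 96-well plates. Step 2: Expose to compound for 48 hours at 5 concentrations. Step 3: Interpolate endpoints linearly; if unreached, use highest concentration. Here, GI50 denotes the concentration required for 50% inhibition of growth.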 Active and inactive are the calls of the source. Rule as the data show it: active = GI50 up to about 1.1 µM and inactive = higher.

Tests used:
Test in all cases: NCI tumour cell line growth inhibition, 48 h
RPMI-8226 = system: RPMI-8226
COLO 205 = system: COLO 205
SN12C = system: SN12C
NCI-H460 = system: NCI-H460
HL-60 = system: HL-60
HCT-15 = system: HCT-15
786-0 = system: 786-0
NCI/ADR-RES = system: NCI/ADR-RES
CCRF-CEM = system: CCRF-CEM
HOP-62 = system: HOP-62
SF-295 = system: SF-295
U-251 = system: U-251
SNB-19 = system: SNB-19
LOX IMVI = system: LOX IMVI
PC-3 = system: PC-3
DU-145 = system: DU-145
HT-29 = system: HT-29
MCF7 = system: MCF7
K562 = system: K562
SR = system: SR

| SMILES | GI50 (RPMI-8226) | GI50 (COLO 205) | GI50 (SN12C) | GI50 (NCI-H460) | GI50 (HL-60) | GI50 (HCT-15) | GI50 (786-0) | GI50 (NCI/ADR-RES) | GI50 (CCRF-CEM) | GI50 (HOP-62) | GI50 (SF-295) | GI50 (U-251) | GI50 (SNB-19) | GI50 (LOX IMVI) | GI50 (PC-3) | GI50 (DU-145) | GI50 (HT-29) | GI50 (MCF7) | GI50 (K562) | GI50 (SR) |
| --- | --- | --- | --- | --- | --- | --- | --- | --- | --- | --- | --- | --- | --- | --- | --- | --- | --- | --- | --- | --- |
| CCCNC(=S)N/N=C1\C(=O)Nc2ccccc21 | > 100 µM (inactive) | > 100 µM (inactive) | > 100 µM (inactive) | > 100 µM (inactive) | > 100 µM (inactive) | > 100 µM | > 100 µM (inactive) | > 100 µM (inactive) | > 100 µM (inactive) | > 100 µM (inactive) | > 100 µM (inactive) | > 100 µM (inactive) | > 100 µM (inactive) | > 100 µM (inactive) | > 100 µM (inactive) | > 100 µM (inactive) | > 100 µM (inactive) | > 100 µM (inactive) | > 100 µM (inactive) | > 100 µM (inactive) |
| O=C(O)c1ccc2nc(-c3ccccn3)c(-c3ccccn3)nc2c1 | > 100 µM (inactive) | > 100 µM (inactive) |  | > 100 µM (inactive) | > 100 µM (inactive) | > 100 µM | > 100 µM (inactive) | > 100 µM (inactive) | > 100 µM (inactive) | > 100 µM (inactive) | > 100 µM (inactive) | > 100 µM (inactive) | > 100 µM (inactive) | > 100 µM (inactive) | > 100 µM (inactive) | > 100 µM (inactive) | > 100 µM (inactive) | > 100 µM (inactive) | > 100 µM (inactive) | > 100 µM (inactive) |
| O=C(NCCCCNCCCNC(=O)c1ccccc1)c1ccccc1 | > 100 µM (inactive) | > 100 µM (inactive) | > 100 µM (inactive) | > 100 µM (inactive) | > 100 µM (inactive) | > 100 µM | > 100 µM (inactive) | > 100 µM (inactive) | > 100 µM (inactive) | > 100 µM (inactive) | > 100 µM (inactive) | > 100 µM (inactive) | > 100 µM (inactive) |  | > 100 µM (inactive) | > 100 µM (inactive) | > 100 µM (inactive) | > 100 µM (inactive) | > 100 µM (inactive) | > 100 µM (inactive) |
| Nc1nnc2n1C(=O)C(C1(C3=Nc4nnc(N)n4C3=O)Cc3ccccc3C1=O)=N2 | > 100 µM (inactive) | > 100 µM (inactive) | > 100 µM (inactive) | > 100 µM (inactive) | > 100 µM (inactive) | > 100 µM | > 100 µM (inactive) | > 100 µM (inactive) | 48 µM (inactive) | > 100 µM (inactive) | > 100 µM (inactive) |  | > 100 µM (inactive) | 87.5 µM (inactive) | > 100 µM (inactive) | > 100 µM (inactive) | > 100 µM (inactive) | 40.7 µM (inactive) | 94 µM (inactive) | 76.6 µM (inactive) |
| CCOC(=O)[C@@]1(C(C)=O)CC(C)=C(C)C[S@@+]1[O-] | > 100 µM (inactive) | > 100 µM (inactive) | > 100 µM (inactive) | > 100 µM (inactive) |  | > 100 µM | > 100 µM (inactive) | > 100 µM (inactive) |  | > 100 µM (inactive) | > 100 µM (inactive) | > 100 µM (inactive) | > 100 µM (inactive) | > 100 µM (inactive) | > 100 µM (inactive) | > 100 µM (inactive) |  | > 100 µM (inactive) | > 100 µM (inactive) | > 100 µM (inactive) |
| COc1cc(O)c2c(=O)c3cccc(C)c3[nH]c2c1 | > 10 µM (inactive) | > 10 µM (inactive) | > 10 µM (inactive) | > 10 µM (inactive) | > 10 µM (inactive) | > 10 µM | > 10 µM (inactive) | > 10 µM (inactive) | 7.6 µM (inactive) | > 10 µM (inactive) | > 10 µM (inactive) | > 10 µM (inactive) | > 10 µM (inactive) | 8.75 µM (inactive) | > 10 µM (inactive) | > 10 µM (inactive) | > 10 µM (inactive) | > 10 µM (inactive) | > 10 µM (inactive) |  |
| CCOC(=O)C1C(c2ccc(OC)cc2)c2c(nn(-c3ccccc3)c2O)CC1(C)O (stereo not drawn) | 2.29 µM (inactive) | 16 µM (inactive) | 91.2 µM (inactive) | 5.48 µM (inactive) | 1.38 µM (inactive) | 14.3 µM | > 100 µM (inactive) | 42.5 µM (inactive) | 7.1 µM (inactive) | > 100 µM (inactive) | 2.29 µM (inactive) | 53.3 µM (inactive) | 75.2 µM (inactive) | 0.813 µM (active) | 7.5 µM (inactive) | 38.8 µM (inactive) | 28 µM (inactive) | 33.6 µM (inactive) |  | 6.49 µM (inactive) |
| O=c1[nH]c2cc(F)c(F)cc2nc1Cc1ccccc1 |  | > 100 µM (inactive) |  | > 100 µM (inactive) | > 100 µM (inactive) | > 100 µM | > 100 µM (inactive) | > 100 µM (inactive) | > 100 µM (inactive) | > 100 µM (inactive) | > 100 µM (inactive) | > 100 µM (inactive) | > 100 µM (inactive) | > 100 µM (inactive) | > 100 µM (inactive) | > 100 µM (inactive) | > 100 µM (inactive) | > 100 µM (inactive) | 30 µM (inactive) | > 100 µM (inactive) |
| O=C1NC(N2CCCCC2)=N/C1=C\c1ccco1 | > 100 µM (inactive) | > 100 µM (inactive) | > 100 µM (inactive) |  | > 100 µM (inactive) | > 100 µM | > 100 µM (inactive) | > 100 µM (inactive) | > 100 µM (inactive) | > 100 µM (inactive) | > 100 µM (inactive) | > 100 µM (inactive) | > 100 µM (inactive) | > 100 µM (inactive) | > 100 µM (inactive) | > 100 µM (inactive) | 30.3 µM (inactive) | > 100 µM (inactive) |  | > 100 µM (inactive) |
| CC[C@]1(Cc2ccc(OC)c(OC)c2)C=[N+]([O-])O[C@H](OC2CCCC2(c2ccccc2)c2ccccc2)[C@@H]1OC(=O)c1ccccc1 (stereo partly drawn) |  | 8.79 µM (inactive) | > 21.2 µM (inactive) | 14.2 µM (inactive) | 3.21 µM (inactive) | 11.7 µM | 6.75 µM (inactive) | 4.73 µM (inactive) | 3.27 µM (inactive) | 9.89 µM (inactive) | 14.1 µM (inactive) | 42.1 µM (inactive) | > 29.2 µM (inactive) | 3.6 µM (inactive) | 5.47 µM (inactive) | 10.6 µM (inactive) | 3.57 µM (inactive) | 3.38 µM (inactive) | 3.94 µM (inactive) | 3.1 µM (inactive) |
| N#CCc1nc(-c2cc3c(ccc4ccccc43)oc2=O)cs1 | > 100 µM (inactive) | > 100 µM (inactive) | 57.8 µM (inactive) | 43.1 µM (inactive) | > 100 µM (inactive) | 69.3 µM | 22.2 µM (inactive) | 23 µM (inactive) | > 100 µM (inactive) | 16.7 µM (inactive) | 26.7 µM (inactive) | 18.9 µM (inactive) | 19.1 µM (inactive) | > 100 µM (inactive) | 65.5 µM (inactive) | 23.9 µM (inactive) | 73.1 µM (inactive) | 38.3 µM (inactive) | > 100 µM (inactive) |  |
| Cc1cn([C@H]2C[C@](C)(CO)N(C)O2)c(=O)[nH]c1=O | > 100 µM (inactive) | > 100 µM (inactive) | > 100 µM (inactive) | > 100 µM (inactive) | > 100 µM (inactive) |  | > 100 µM (inactive) | > 100 µM (inactive) |  | > 100 µM (inactive) | > 100 µM (inactive) | > 100 µM (inactive) | > 100 µM (inactive) | > 100 µM (inactive) | > 100 µM (inactive) | > 100 µM (inactive) | > 100 µM (inactive) | > 100 µM (inactive) | > 100 µM (inactive) | > 100 µM (inactive) |
| CCN(CC)C(=S)SC(=S)N(CC)CC | 15.6 µM (inactive) | 18.3 µM (inactive) | > 54.3 µM (inactive) | 2.3 µM (inactive) | 29.5 µM (inactive) | 55 µM | 23.7 µM (inactive) | 42.5 µM (inactive) |  | 53.7 µM (inactive) | 39.8 µM (inactive) | 36 µM (inactive) | 49.8 µM (inactive) | 23.4 µM (inactive) | 38.1 µM (inactive) | 55.8 µM (inactive) |  | 34.8 µM (inactive) | 28 µM (inactive) | 0.0482 µM (active) |
| O=C(NC(=S)NC(=O)c1cc(O)c(O)c(O)c1)c1cc(O)c(O)c(O)c1 | 48.3 µM (inactive) | 22.6 µM (inactive) | 24.7 µM (inactive) | 26.5 µM (inactive) |  | 23.9 µM | 20 µM (inactive) | 23.4 µM (inactive) | 4.41 µM (inactive) |  | 17.1 µM (inactive) | 27 µM (inactive) | 24.2 µM (inactive) | 12.8 µM (inactive) | 19.7 µM (inactive) | 25.5 µM (inactive) | 25.9 µM (inactive) | 38.7 µM (inactive) | 8.34 µM (inactive) | > 100 µM (inactive) |
| COc1ccc(Cn2nc(OCc3ccccn3)c3cc([N+](=O)[O-])ccc32)cc1 | > 100 µM (inactive) |  | > 100 µM (inactive) | > 100 µM (inactive) | > 100 µM (inactive) | > 100 µM | > 100 µM (inactive) | > 100 µM (inactive) | > 100 µM (inactive) | 28.1 µM (inactive) | 50.9 µM (inactive) |  | 85.9 µM (inactive) | > 100 µM (inactive) | > 100 µM (inactive) | > 100 µM (inactive) | > 100 µM (inactive) | > 100 µM (inactive) | > 100 µM (inactive) | > 100 µM (inactive) |
